According to patent US9302999B2, “Substituted triazoles as herbicides” (E. I. DU PONT DE NEMOURS AND COMPANY, priority 2012, dated 2016):

Tests used:
Type in all cases: in vivo
[1] = tested on: deadnettle (henbit deadnettle, Lamium amplexicaule); assay: Test D pre-/postemergence: deadnettle
In short: (§1)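 Species were sown in silt loam and sprayed preemergence, or grown in peat/vermiculite medium and sprayed postemergence at the 1- to 4-leaf stage (2–18 cm), with compounds in a surfactant-containing solvent. Injury was visually rated against untreated controls after 14–21 days, on a 0 (no effect) to 100 (complete control) scale.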

[2] = tested on: barnyardgrass (Echinochloa crus-galli); assay: Test B flooded paddy: barnyardgrass; details: Flood; 250 g ai/ha; applied to paddy water at 2-leaf stage; visually evaluated after 13 to 15 days
In short: (§2)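 Plants were grown to the 2-leaf stage and pots flooded to 3 cm above soil. Compounds were applied directly into the paddy water, with depth kept for the test. After 13–15 days in greenhouse, response was rated visually against controls on a 0 (no effect) to 100 (complete control) scale.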

[3] = tested on: field poppy (Papaver rhoeas); assay: Test D pre-/postemergence: field poppy
In short: as §1

[4] = tested on: canarygrass (Phalaris minor); assay: Test D pre-/postemergence: canarygrass
In short: as §1

[5] = tested on: mustard, wild (wild mustard, Sinapis arvensis); assay: Test D pre-/postemergence: mustard, wild
In short: as §1

[6] = tested on: ducksalad (Heteranthera limosa); assay: Test B flooded paddy: ducksalad; details: Flood; 250 g ai/ha; applied to paddy water at 2-leaf stage; visually evaluated after 13 to 15 days
In short: as §2

[7] = tested on: galium (catchweed bedstraw, Galium aparine); assay: Test D pre-/postemergence: galium
In short: as §1

[8] = tested on: chickweed (common chickweed, Stellaria media); assay: Test D pre-/postemergence: chickweed; details: Postemergence; for Plant response rating, Chickweed: scale 0 to 100
In short: as §1

[9] = tested on: windgrass (Apera spica-venti); assay: Test C postemergence: windgrass
In short: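 Crop and weed plants were grown in peat-vermiculite medium and treated postemergence at the 1- to 4-leaf stage (2-18 cm tall). After 13-15 days in a greenhouse, each species was rated visually against untreated controls on a 0-100 scale (0 no effect, 100 complete control).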

[10] = Postemergence, 31 g ai/ha, scale 0 to 100 (0 no effect, 100 complete control)
[11] = Postemergence, 62 g ai/ha, scale 0 to 100 (0 no effect, 100 complete control)
[12] = Postemergence, 125 g ai/ha, scale 0 to 100, 0 no effect, 100 complete control
[13] = Postemergence, 8 g ai/ha, scale 0 to 100
[14] = Postemergence, 16 g ai/ha, scale 0 to 100
[15] = 31 g ai/ha, scale 0 to 100 (0 no effect, 100 complete control)
[16] = 62 g ai/ha, scale 0 to 100 (0 no effect, 100 complete control)
[17] = 125 g ai/ha, scale 0 to 100, 0 no effect, 100 complete control
[18] = Postemergence, 250 g ai/ha, scale 0 to 100 (0 no effect, 100 complete control)
[19] = Preemergence, 16 g ai/ha, scale 0 to 100 (0 no effect, 100 complete control)
[20] = Preemergence, 31 g ai/ha, scale 0 to 100 (0 no effect, 100 complete control)
[21] = Preemergence, 62 g ai/ha, scale 0 to 100
[22] = Preemergence, 125 g ai/ha, scale 0 to 100
[23] = Preemergence, 250 g ai/ha, scale 0 to 100
[24] = 250 g ai/ha, scale 0 to 100 (0 no effect, 100 complete control)

Cc1nn(-c2ccc(F)c(F)c2)nc1Oc1ccnc(C(F)(F)F)c1 [Compound 145]
0: Plant response rating, Deadnettle [1, 13]
70: Plant response rating: Deadnettle [1, 10] | Plant response rating, Mustard, Wild [5, 14] | Plant response rating: Galium [7, 12] | Plant response rating, Windgrass [9, 16]
90: Plant response rating: Deadnettle [1, 11] | Plant response rating, Barnyardgrass (0 to 100 scale, 0 is no effect, 100 is complete control) [2] | Plant response rating: Mustard, Wild [5, 11] | Plant response rating: Chickweed [8, 17] | Plant response rating, Windgrass [9, 17] | Plant response rating, Windgrass ([9]; 250 g ai/ha, scale 0 to 100)
30: Plant response rating, Canarygrass [4, 14] | Plant response rating, Galium [7, 14]
20: Plant response rating, Canarygrass [4, 13]
75: Plant response rating, Field Poppy [3, 14] | Plant response rating: Mustard, Wild [5, 10] | Plant response rating, Chickweed ([8]; 16 g ai/ha)
25: Plant response rating, Field Poppy [3, 13] | Plant response rating, Mustard, Wild [5, 13]
40: Plant response rating: Galium [7, 11] | Plant response rating, Chickweed ([8]; 8 g ai/ha)
5: Plant response rating, Galium [7, 13]
100: Plant response rating: Deadnettle [1, 12] | Plant response rating: Field Poppy [3, 10] | Plant response rating: Field Poppy [3, 11] | Plant response rating: Field Poppy [3, 12] | Plant response rating: Mustard, Wild [5, 12]
50: Plant response rating, Deadnettle [1, 14] | Plant response rating, Windgrass [9, 15]
80: Plant response rating: Chickweed [8, 16]
35: Plant response rating: Canarygrass [4, 10] | Plant response rating: Canarygrass [4, 11] | Plant response rating: Galium [7, 10]
60: Plant response rating: Canarygrass [4, 12] | Plant response rating, Ducksalad (0 to 100 scale, 0 is no effect, 100 is complete control) [6] | Plant response rating: Chickweed [8, 15]

CCOc1nn(-c2ccc(F)cc2)nc1Cc1ccnc(C(F)F)c1 [Compound 195]
65: Plant response rating: Deadnettle [1, 10]
40: Plant response rating, Field Poppy [3, 20] | Plant response rating: Canarygrass [4, 12] | Plant response rating, Canarygrass [4, 21] | Plant response rating, Mustard, Wild [5, 21] | Plant response rating: Chickweed [8, 15]
25: Plant response rating, Canarygrass [4, 20]
10: Plant response rating: Canarygrass [4, 10] | Plant response rating, Canarygrass [4, 14] | Plant response rating, Mustard, Wild [5, 20] | Plant response rating, Galium [7, 21]
50: Plant response rating: Galium [7, 11]
75: Plant response rating: Deadnettle [1, 11] | Plant response rating: Deadnettle [1, 12] | Plant response rating: Field Poppy [3, 10] | Plant response rating: Galium [7, 12]
0: Plant response rating, Canarygrass [4, 19] | Plant response rating, Mustard, Wild [5, 19] | Plant response rating, Galium [7, 19] | Plant response rating, Galium [7, 20]
55: Plant response rating: Canarygrass [4, 18] | Plant response rating, Windgrass [9, 15]
100: Plant response rating, Deadnettle [1, 22] | Plant response rating, Deadnettle [1, 23] | Plant response rating: Field Poppy [3, 12] | Plant response rating: Field Poppy [3, 18] | Plant response rating, Field Poppy [3, 22] | Plant response rating, Field Poppy [3, 23] | Plant response rating: Mustard, Wild [5, 18] | Plant response rating, Mustard, Wild [5, 22] | Plant response rating, Mustard, Wild [5, 23] | Plant response rating, Ducksalad (0 to 100 scale, 0 is no effect, 100 is complete control) [6] | Plant response rating, Windgrass [9, 24]
90: Plant response rating: Deadnettle [1, 18] | Plant response rating: Chickweed [8, 24]
80: Plant response rating, Canarygrass [4, 22] | Plant response rating: Mustard, Wild [5, 10] | Plant response rating: Mustard, Wild [5, 11] | Plant response rating: Galium [7, 18] | Plant response rating, Galium [7, 23] | Plant response rating, Windgrass [9, 16]
60: Plant response rating, Deadnettle [1, 14] | Plant response rating, Deadnettle [1, 19] | Plant response rating, Deadnettle [1, 20] | Plant response rating, Deadnettle [1, 21] | Plant response rating, Field Poppy [3, 21] | Plant response rating, Mustard, Wild [5, 14] | Plant response rating: Chickweed [8, 16]
20: Plant response rating: Canarygrass [4, 11] | Plant response rating, Galium [7, 14]
35: Plant response rating, Field Poppy [3, 14]
30: Plant response rating, Field Poppy [3, 19] | Plant response rating: Galium [7, 10] | Plant response rating, Galium [7, 22] | Plant response rating, Chickweed ([8]; 16 g ai/ha)
95: Plant response rating: Field Poppy [3, 11] | Plant response rating, Canarygrass [4, 23] | Plant response rating: Mustard, Wild [5, 12] | Plant response rating, Windgrass [9, 17]
85: Plant response rating, Barnyardgrass (0 to 100 scale, 0 is no effect, 100 is complete control) [2] | Plant response rating: Chickweed [8, 17]
